# Patent publication US20070208031A1, “Substituted Diketopiperazines as Oxytocin Antagonists” (priority 2004, published 2007)
# Experiments:
# [1] = In vitro intrinsic clearance in microsomes (Assay 3), human; type: in vitro ADME; conditions: pH 7.4; heading: Assay 3 - Microsomal Cl; human female microsomes, 0.5 uM compound, 0.5 mg/mL protein
# Procedure: (§1) Determination of In Vitro Intrinsic Clearance in Microsomes
# (§2) NADP regeneration buffer for use in incubations was prepared fresh on the assay day. It contained 7.8 mg glucose-6-phosphate (mono-sodium salt), 1.7 mg NADP and 6 Units glucose-6-phosphate dehydrogenase per 1 mL of 2% sodium bicarbonate. Microsomes (human, female; cynomolgus monkey, female; dog, female; rat, female) were prepared in pH 7.4 phosphate buffer and contained 0.625 mg protein/mL. Unless stated, all subsequent steps were performed by a Tecan Genesis 150/8 RSP. A 1.25 mM stock solution of the compounds was prepared in Acetonitrile/water (1:1). 25 ul of the 1.25 mM stock solution was added to 600 ul of Acetonitrile/water (1:1) to give a 50 uM solution. For each species, the 50 uM solutions (10 uL) were added to microsomes (790 uL) in a microplate (Porvair, 96 deepwell, square).
# (§3) 400 uL of the microsomal solution containing the compound was transferred to a microplate (Porvair, 96 deepwell, round) and was pre-warmed at 37° C. for five minutes prior to initiation of incubations. All incubations were initiated by addition of 100 uL of NADP regeneration system to the pre-warmed microsomes. The mixtures were incubated at 37° C. in a Techne heating block. Following 0, 3, 6, 12 and 30 minutes incubation, 20 uL aliquots were taken and added to 100 uL of acetonitrile containing internal standard.
# (§4) For determination of the rate of metabolism, incubations were performed at a compound concentration of 0.5 uM and a protein concentration of 0.5 mg/mL. The concentration of solvent in the incubation was 0.5%.
# (§5) Test compound concentrations were determined by LC/MS/MS; results were reported as analyte:internal standard peak area ratios.
# (§6) The rate of disappearance was calculated by fitting a single exponential decay to the concentration-time curve using Excel and intrinsic clearance was calculated using the following formula: [formula] Results
# [2] = In vitro intrinsic clearance in microsomes (Assay 3), dog; type: in vitro ADME; conditions: pH 7.4; heading: Assay 3 - Microsomal Cl; dog female microsomes, 0.5 uM compound, 0.5 mg/mL protein
# Procedure: as §1, §2, §3, §4, §5, §6
# [3] = In vitro intrinsic clearance in microsomes (Assay 3), rat; type: in vitro ADME; conditions: pH 7.4; heading: Assay 3 - Microsomal Cl; rat female microsomes, 0.5 uM compound, 0.5 mg/mL protein
# Procedure: as §1, §2, §3, §4, §5, §6
# [4] = In vitro intrinsic clearance in microsomes (Assay 3), cynomolgus monkey; type: in vitro ADME; conditions: pH 7.4; heading: Assay 3 - Microsomal Cl, Cyno; cynomolgus monkey female microsomes, 0.5 uM compound, 0.5 mg/mL protein
# Procedure: as §1, §2, §3, §4, §5, §6
# [5] = biological target: T1, human recombinant oxytocin receptors (Homo sapiens, UniProt P30559); assay: Oxytocin binding assay, [3H]-oxytocin competition on CHO membranes (Assay 2); conditions: ~2.4 nM [3H]-oxytocin, Cheng-Prusoff, read-out: pKi (Assay 2) (converted)
# T1 construct: expressed in transfected cells; host or cells: CHO cells (membrane preparation)
# T1 sequence (P30559 1-389): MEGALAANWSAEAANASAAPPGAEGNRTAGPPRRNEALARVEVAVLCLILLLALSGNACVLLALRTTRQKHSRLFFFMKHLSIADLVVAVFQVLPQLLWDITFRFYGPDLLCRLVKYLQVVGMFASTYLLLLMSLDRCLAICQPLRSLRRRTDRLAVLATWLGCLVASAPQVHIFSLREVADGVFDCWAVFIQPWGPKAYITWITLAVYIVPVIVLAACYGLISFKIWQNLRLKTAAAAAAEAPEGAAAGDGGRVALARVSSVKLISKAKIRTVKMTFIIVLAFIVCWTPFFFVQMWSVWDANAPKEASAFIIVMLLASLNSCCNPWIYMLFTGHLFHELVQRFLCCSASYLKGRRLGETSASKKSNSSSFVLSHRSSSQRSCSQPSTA
# Procedure: Membranes were prepared from CHO cells expressing human recombinant oxytocin receptors. The membrane preparation was frozen in aliquots at −70° C. until used.
# Membranes (˜50 ug) were incubated in 200 ul of assay buffer (50 mM Tris, 10 mM MgCl2, and 0.1% bovine serum albumin, pH 7.5) containing ˜2.4 nM of [3H]-oxytocin in the absence (total binding) or presence (non-specific binding) of 1 uM unlabeled oxytocin and increasing concentrations of the compounds in Examples 1 and 2 or comparator compounds. Incubations were performed at room temperature for 60 minutes. The reactions were stopped with 3 ml of ice cold buffer and filtered through Whatman GF/C filter paper presoaked in 0.3% polyethylenimine. The filters were washed 4 times with 3 ml buffer using a Brandel cell harvester. The filters were counted in 3 ml Ready Safe scintillation fluid (Beckman).
# Specific binding represented approximately 90% of total binding.
# IC50 values were determined from competition binding experiments using non-linear regression analysis (GraphPad) and converted to Ki using the method of Cheng and Prusoff, 1974. Data are reported as mean values.
# [6] = biological target: T2, recombinant human Oxytocin-1 (hOT) receptor (Homo sapiens, UniProt P30559); assay: Determination of antagonist affinity at human Oxytocin-1 receptors using FLIPR (Assay 1); type: cell-based; conditions: CHO-hOT cells, FLIPR calcium response, oxytocin at EC80; read-out: fpki (Assay 1)
# T2 construct: expressed in transfected cells
# T2 sequence (P30559 1-389): T1 sequence (P30559 1-389)
# Procedure: Determination of Antagonist Affinity at Human Oxytocin-1 Receptors using FLIPR
# Adherent Chinese Hamster Ovary (CHO) cells, stably expressing the recombinant human Oxytocin-1 (hOT) receptor, were maintained in culture in DMEM:F12 medium (Sigma, cat no D6421), supplemented with 10% heat inactivated foetal calf serum (Gibco/lnvitrogen, cat. no.01000-147), 2 mM L-glutamine (Gibco/lnvitrogen, cat. no. 25030-024) and 0.2 mg/ml G418 (Gibco/lnvitrogen, cat no. 10131-027). Cells were grown as monolayers under 95%:5% air:CO2 at 37° C. and passaged every 3-4 days using TrypLE™ Express (Gibco/lnvitrogen, cat no. 12604-013).
# Measurement of [Ca^2+]1 using the FLIPR™
# CHO-hOT cells were seeded into black walled clear-base 384-well plates (Nunc) at a density of 10,000 cells per well in culture medium as described above and maintained overnight (95%:5% air:CO2 at 37° C.). After removal of culture medium, cells were incubated for 1 h at 37° C. in Tyrode's medium (NaCl, 145 mM; KCl, 2.5 mM; HEPES, 10 mM; Glucose, 10 mM; MgCl2, 1.2 mM; CaCl2, 1.5 mM) containing probenacid (0.7 mg/ml), the cytoplasmic calcium indicator, Fluo-4 (4 uM; Teflabs, USA) and the quenching agent Brilliant Black (250 uM; Molecular Devices, UK). Cells were then incubated for an additional 30min at 37° C. with either buffer alone or buffer containing OT antagonist, before being placed into a FLIPR™ (Molecular Devices, UK) to monitor cell fluorescence (λex=488 nm, λEM=540 nm) before and after the addition of a submaximal concentration of oxytocin (EC80).
# Functional responses using FLIPR were analysed using Activity Base Version 5.0.10.
microsomal CLint at 0.5 uM [1] [mL/min/g],microsomal CLint at 0.5 uM [2] [mL/min/g],microsomal CLint at 0.5 uM [3] [mL/min/g],microsomal CLint at 0.5 uM [4] [mL/min/g],Ki [5] [nM],Ki [6] [nM],SMILES
> 31,16 to 20,9 to 15,> 31,–,–,"CC(C)C[C@@H]1C(=O)N[C@H](C2Cc3ccccc3C2)C(=O)N1[C@@H](C(=O)N(C)C)c1ccc2[nH]ncc2c1 [Comparator compound X, (2R)-2-[(3R,6R)-3-(2,3-dihydro-1H-inden-2-yl)-6-isobutyl-2,5-dioxopiperazin-1-yl]-2-(1H-indazol-5-yl)-N,N-dimethylethanamide, reference compound]"
16 to 20,1 to 8,1 to 8,21 to 30,0.0398 to 0.126,2 to 3.16,"CC(C)C[C@@H]1C(=O)N[C@H](C2Cc3ccccc3C2)C(=O)N1[C@@H](C(=O)N(C)C)c1ccc(F)cc1F [Comparator compound Y, (2R)-2-(2,4-difluorophenyl)-2-[(3R,6R)-3-(2,3-dihydro-1H-inden-2-yl)-6-isobutyl-2,5-dioxopiperazin-1-yl]-N,N-dimethylethanamide, reference compound]"
1 to 8,1 to 8,1 to 8,9 to 15,0.0398 to 0.126,2 to 3.16,"CC[C@H](C)[C@@H]1C(=O)N[C@H](C2Cc3ccccc3C2)C(=O)N1[C@@H](C(=O)NC)c1ccc2c(cnn2C)c1 [Example 1, (2R)-2-{(3R,6R)-3-(2,3-Dihydro-1H-inden-2-yl)-6-[(1S)-1-methylpropyl]-2,5-dioxo-1-piperazinyl}-N-methyl-2-(1-methyl-1H-indazol-5-yl)ethanamide]"
1 to 8,1 to 8,1 to 8,9 to 15,0.0398 to 0.126,2 to 3.16,"CC[C@H](C)[C@@H]1C(=O)N[C@H](C2Cc3ccccc3C2)C(=O)N1[C@@H](C(=O)N(C)C)c1ccc2c(cnn2C)c1 [Example 2, (2R)-2-{(3R,6R)-3-(2,3-Dihydro-1H-inden-2-yl)-6-[(1S)-1-methylpropyl]-2,5-dioxo-1-piperazinyl}-N,N-dimethyl-2-(1-methyl-1H-indazol-5-yl)ethanamide]"
